How the values were obtained:
[1] = test system: HT-1080-FAP xenografts; assay: Small animal PET imaging; assay type: in vivo, BALB/c nu/nu mice; conditions: for Tumor Uptake (SUVmean) 8 min / Tumor Uptake (SUVmean) 22 min / Tumor Uptake (SUVmean) 57 min / Tumor Uptake (SUVmean) 120 min: HT1080-FAP transplanted nude mice
Protocol: Eight-week-old BALB/c nu/nu mice (Charles River) were subcutaneously inoculated with 5 × 10^6 HT-1080-FAP cells. The subcutaneous xenografts were grown at the flanks of the mice. Xenografts were grown to a tumor diameter of 10–15 mm. Mice were anesthetized using isoflurane inhalation. 5–10 MBq of the [^18F]AlF-labeled compounds/ the respective tracer (FAPI-42/52/74/75/76; approx. 0.5 nmol; Am approximately 10–20 GBq/µmol) were injected intravenously for PET imaging. In vivo competition (blocking) experiments with ^68 Ga-FAPI-74 (9 MBq; 18.2 GBq/µmol) were performed by adding 30 nmol of unlabeled FAPI-74 to the injection solution. Images were acquired using a small-animal PET scanner (Inveon, Siemens). Within the first 60 min p.i., a dynamic scan was performed in list mode, followed by a static scan from 120–140 min post injection. Images were reconstructed iteratively using the 3D-OSEM + MAP method (Siemens) and were converted to standardized uptake value (SUV). For the dynamic analysis, 28 frames were reconstructed. Quantification was based on ROI analysis and expressed as SUV.
SUPPLEMENTAL TABLE 1: Tumor-SUVmean values of all mentioned ^18F labeled FAPI-derivatives in HT1080-FAP transplanted nude mice at different time points. The time points 8 min, 22 min and 57 min were selected from the applied 28-frame 3D-OSEM+MAP (Siemens) reconstruction method.

[2] = Determination of logD values (1-octanol / PBS); assay type: physicochemical; conditions: 1-octanol / phosphate buffered saline, pH 7.4
Protocol: All experiments for the determination of logD values were performed in triplicate. For the determination by means of radioactivity, around 5 × 10^6 cpm in ca. 1 µL of radioactive stock solutions (water/acetonitrile 1:1) were added to 100 µL phosphate buffered saline (PBS, pH 7.4) and 100 µL of 1-octanol. The mixture was vortexed for 1 min, followed by 5 min of centrifugation for phase separation. A sample of each phase (10 or 50 µL) was measured for radioactivity per volume (Packard Cobra II Autogamma, GMI Inc., USA). In case of FAPI-72 and -73, the reference compounds [^19F]-FAPI-72 and -73 were dissolved in PBS at a concentration of 1 mg/mL. 50 µL of these solutions were each mixed with 50 µL 1-octanol and processed by vortexing and centrifugation as described above. 1 µL of each phase was analyzed by HPLC and the individual content of compound was determined by peak integration. The area under the peaks of the individual runs was used to calculate the log D value.
Fig. 1 Overview of the synthesized precursors discussed in this study. The corresponding log D values were determined by detection of the radiolabeled tracer in 1-octanol and phosphate buffered saline (pH 7). For values labeled with an asterix, the log D was calculated from the relative content of the non-radioactive reference standards in the 1-octanol and the water phase by HPLC analysis and peak integration TEXT PRINTED IN THE PICTURE: FAPI-42: LOG D: -1.63±0.06 | FAPI-52: LOG D: -1.90±0.02 | FAPI-72: LOG D: 1.20±0.01* | FAPI-73: LOG D: 1.13±0.05* | FAPI-74: LOG D: -2.42±0.03 | FAPI-75: LOG D: -3.36±0.12 | FAPI-76: LOG D: -2.86±0.07

[3] = biological target: T1, FAP‐transfected HT‐1080‐FAP cells (Homo sapiens, UniProt Q12884); assay: In vitro binding/uptake on FAP-transfected HT-1080-FAP cells; assay type: cell-based; conditions: HT1080-FAP cells; for uptake 10 min: 10 min incubation; for uptake 60 min: 60 min incubation; for uptake, measurement at 90 min: printed in 120 min column, footnote a: 90 min; for uptake 120 min: 120 min incubation
T1 construct: expressed in transfected cells; host or cells: HT-1080 cells transfected with FAP (HT-1080-FAP)
T1 sequence (Q12884 1-760): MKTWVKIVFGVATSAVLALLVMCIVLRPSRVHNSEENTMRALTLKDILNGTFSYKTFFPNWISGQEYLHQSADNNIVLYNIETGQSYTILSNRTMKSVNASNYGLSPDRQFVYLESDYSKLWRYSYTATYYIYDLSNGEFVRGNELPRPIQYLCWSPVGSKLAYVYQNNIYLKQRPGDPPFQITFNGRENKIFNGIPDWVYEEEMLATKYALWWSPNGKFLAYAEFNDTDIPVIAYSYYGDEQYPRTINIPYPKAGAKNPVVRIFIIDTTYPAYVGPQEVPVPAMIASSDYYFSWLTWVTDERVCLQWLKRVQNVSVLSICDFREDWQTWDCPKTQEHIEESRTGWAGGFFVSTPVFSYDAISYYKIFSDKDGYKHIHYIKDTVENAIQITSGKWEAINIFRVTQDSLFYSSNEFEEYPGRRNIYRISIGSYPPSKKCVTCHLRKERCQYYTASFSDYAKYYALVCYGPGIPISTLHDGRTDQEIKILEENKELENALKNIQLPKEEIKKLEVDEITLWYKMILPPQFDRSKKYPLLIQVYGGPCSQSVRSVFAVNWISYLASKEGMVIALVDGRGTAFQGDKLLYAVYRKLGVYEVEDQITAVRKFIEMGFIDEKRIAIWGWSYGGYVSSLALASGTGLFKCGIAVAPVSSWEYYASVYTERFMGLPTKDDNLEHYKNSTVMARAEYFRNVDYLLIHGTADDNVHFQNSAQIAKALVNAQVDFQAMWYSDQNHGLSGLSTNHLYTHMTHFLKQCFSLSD
Protocol: (§1) The binding properties of the FAPI derivatives were evaluated using the FAP‐transfected HT‐1080‐FAP and CD26 expressing HEK-CD26 cells. All cells were cultivated in Dulbecco's modified Eagle's medium (DMEM) containing 10% fetal calf serum (FCS) at 37 °C/5% carbon dioxide. Cells were seeded in 6-well plates and cultivated to a final confluence of approximately 80–90% (1.2 to 2.0 × 10^6 cells/well). After washing with FCS free medium, for each well ca. 3 kBq of the radiolabeled compound (10–20 GBq/µmol for [^18F]AlF-labeling) was added to the cells in FCS free medium. On completion of the individual incubation time, cells were washed with PBS and treated with 1.4 mL lysis buffer (0.3 m NaOH, 0.2% SDS) before being transferred to measuring tubes. Competition experiments were performed by co-incubation with the unlabeled precursor for 60 min. Radioactivity was determined in a Wizard Gamma Counter (Perkin Elmer), normalized to 10^6 cells and calculated as percentage of the applied dose (%AD). Each experiment was performed in triplicate.

[4] = biological target: T2, FAP (HT-1080-FAP cells) (Homo sapiens, UniProt Q12884); assay: Competition experiments with unlabeled precursor on HT-1080-FAP cells; assay type: binding; conditions: co-incubation with unlabeled precursor for 60 min
T2 construct: expressed in transfected cells; host or cells: HT-1080 cells transfected with FAP (HT-1080-FAP)
T2 sequence (Q12884 1-760): T1 sequence (Q12884 1-760)
Protocol: as §1

[5] = test system: U87MG- and A549-xenograft models; conditions: in vivo; cited from earlier work
[6] = biological target: T3, CD26 expressing HEK-CD26 cells (Homo sapiens, UniProt P27487); assay: In vitro binding on HEK-CD26 cells (negative control); assay type: cell-based
T3 construct: expressed in transfected cells; host or cells: HEK cells transfected with CD26/DPP4 (HEK-CD26)
T3 sequence (P27487 whole entry): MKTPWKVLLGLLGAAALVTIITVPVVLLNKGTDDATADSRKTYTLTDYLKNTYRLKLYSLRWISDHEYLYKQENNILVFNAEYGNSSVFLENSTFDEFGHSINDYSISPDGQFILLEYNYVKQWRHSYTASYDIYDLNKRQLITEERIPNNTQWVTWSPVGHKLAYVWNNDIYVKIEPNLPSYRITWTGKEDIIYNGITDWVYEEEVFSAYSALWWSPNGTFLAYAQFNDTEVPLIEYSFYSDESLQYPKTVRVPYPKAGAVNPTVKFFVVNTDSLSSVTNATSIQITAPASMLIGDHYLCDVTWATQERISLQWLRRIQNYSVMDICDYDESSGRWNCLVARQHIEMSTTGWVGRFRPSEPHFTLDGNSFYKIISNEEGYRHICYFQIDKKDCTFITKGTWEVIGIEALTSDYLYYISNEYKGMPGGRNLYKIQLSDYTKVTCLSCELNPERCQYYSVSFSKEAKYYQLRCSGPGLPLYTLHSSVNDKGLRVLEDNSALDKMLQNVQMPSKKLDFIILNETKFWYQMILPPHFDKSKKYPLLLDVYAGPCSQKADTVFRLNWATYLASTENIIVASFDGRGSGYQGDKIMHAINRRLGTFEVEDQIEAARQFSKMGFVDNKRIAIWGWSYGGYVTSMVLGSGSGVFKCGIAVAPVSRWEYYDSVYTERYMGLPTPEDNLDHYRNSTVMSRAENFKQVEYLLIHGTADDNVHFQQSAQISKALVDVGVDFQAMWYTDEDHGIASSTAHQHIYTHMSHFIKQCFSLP
Protocol: as §1

[7] = test system: wild type HT1080 cells; assay: In vitro binding on wild type HT1080 cells (negative control); assay type: cell-based
Protocol: as §1
Table 1 summarizes the uptake and EC50 values of the discussed ^18F-labeled FAPI derivatives using the FAP-transfected cell line HT-1080-FAP. Additionally, the lead candidates FAPI-74 to -76 were tested on HEK-CD26 as well as -74 and -75 on wild type HT1080 cells as negative control. […] For FAPI-74, a plateau was already reached after approximately 10 min with 27.2 ± 0.88%AD/10^6cells. […] The EC50 values were all in the low to sub-nanomolar range. Only a neglectable fraction of FAPIs 74–76 were detected on HEK-CD26 cells (0.18–0.24%) as well as on wildtype HT1080 in case of -74 and 75 (< 0.1%).

[8] = small animal PET, HT-1080-FAP xenograft
[9] = non-radioactive reference standards, 1-octanol and water phase, HPLC analysis and peak integration (asterisk)
[10] = radiolabeled tracer detected by radioactivity in 1-octanol and phosphate buffered saline

Row | Compound | Tumor Uptake (SUVmean) 8 min [1] | Tumor Uptake (SUVmean) 22 min [1] | Tumor Uptake (SUVmean) 57 min [1] | Tumor Uptake (SUVmean) 120 min [1] | detectability of tumor region in PET [1, 8] | logD [2, 9] | uptake 10 min [3] | uptake 60 min [3] | uptake, measurement at 90 min [3] | EC50 [4] | logD [2, 10] | uptake 120 min [3] | other results
1 | C[N+](C)(C)c1ccc(C(=O)N2CCN(CCCOc3ccc4nccc(C(=O)NCC(=O)N5CC(F)(F)C[C@H]5C#N)c4c3)CC2)cn1 [FAPI-73] | 0.45 | 0.44 | 0.42 | 0.33 | hardly detectable | 1.13 ± 0.05 | 22.7 ± 0.24 %AD/10^6 cells | 39.2 ± 0.48 %AD/10^6 cells | 39.6 ± 0.95^a %AD/10^6 cells | < 1 nM | – | – | –
2 | CN(CCCN1CCN(C(=O)CN2CCN(CC(=O)O)CCN(CC(=O)O)CC2)CC1)c1ccc2nccc(C(=O)NCC(=O)N3CC(F)(F)C[C@H]3C#N)c2c1 [FAPI-52] | 0.65 | 0.55 | 0.47 | 0.20 | – | – | 32.0 ± 0.28 %AD/10^6 cells | 45.9 ± 0.54 %AD/10^6 cells | – | 3.2 nM | -1.9 ± 0.02 | 53.2 ± 1.38 %AD/10^6 cells | –
3 | CN(CCCN1CCN(C(=O)c2ccc([N+](C)(C)C)nc2)CC1)c1ccc2nccc(C(=O)NCC(=O)N3CC(F)(F)C[C@H]3C#N)c2c1 [FAPI-72] | 0.19 | 0.15 | 0.13 | 0.1 | hardly detectable | 1.2 ± 0.01 | 13.9 ± 0.60 %AD/10^6 cells | 23.6 ± 0.40 %AD/10^6 cells | 24.4 ± 0.30^a %AD/10^6 cells | < 1 nM | – | – | –
4 | N#C[C@@H]1CC(F)(F)CN1C(=O)CNC(=O)c1ccnc2ccc(OCCCN3CCN(C(=O)CN4CCN(CC(=O)O)CCN(CC(=O)O)CC4)CC3)cc12 [FAPI-42] | 1.05 | 1.0 | 0.73 | 0.60 | – | – | 40.0 ± 1.73 %AD/10^6 cells | 61.2 ± 1.76 %AD/10^6 cells | – | 3.3 nM | -1.63 ± 0.06 | 58.0 ± 2.24 %AD/10^6 cells | tumor uptake SUVmean at early timepoints ([1]; small animal PET screening, early timepoints): approx. 1.0; elimination and bone accumulation [5]: hepatobiliary elimination together with an accumulation in the bone
5 | N#C[C@@H]1CC(F)(F)CN1C(=O)CNC(=O)c1ccnc2ccc(OCCCN3CCN(C(=O)[C@H](CC(C(=O)O)C(=O)O)NC(=O)CN4CCN(CC(=O)O)CCN(CC(=O)O)CC4)CC3)cc12 [FAPI-75] | 1.55 | 2.06 | 2.24 | 1.9 | – | – | 34.9 ± 0.26 %AD/10^6 cells | 74.0 ± 2.07 %AD/10^6 cells | – | 3.1 nM | -3.36 ± 0.12 | 82.35 ± 3.61 %AD/10^6 cells | excretion pathway ([1]; small animal PET in tumor bearing mice): favorable renal excretion; tumor uptake SUVmean ([1]; small animal PET screening, discussion): approx. 2.0; tumor-SUV max [1, 8]: 3.7; tumor-SUV mean [1, 8]: 2.2; uptake CD26 [6]: 0.18 ± 0.02 %AD/10^6 cells; uptake WT ([7]; wild type HT1080 control cells): 0.06 ± 0.01 %AD/10^6 cells; fraction detected on wildtype HT1080 ([7]; wildtype HT1080, text): < 0.1%

From article PMC8380212, “^18F-labeled tracers targeting fibroblast activation protein” (EJNMMI Radiopharmacy and Chemistry, 2021)
